# Columns and labels:
# Type in all cases: cell-based
# [1] = system: IL-1β; test: Anti-inflammatory potential: IL-1β ELISA in keratinocytes stimulated with PMA
# Description: Keratinocytes were inoculated in KGM2 medium. After 24 hours of incubation, the cells were pre-treated with 0.2% (dry matter) arabinogalactan for 24 hours. Next, the cells were stimulated by adding 10 μg/ml PMA (phorbol-12-myristate-13-acetate; Sigma) for 16 hours, in order to mimic inflammation.
# At the end of the treatment, the cell supernatants were collected and IL-1β was assayed using ELISA kits (R&D Systems).
# On the cell layers, a neutral red assay was carried out: optical density, proportional to the quantity of living cells, is read at 540 nm.
# The quantity of IL-1β is expressed by living cells according to the formula: OD ELISA IL-1β/OD540.
# (§1) The significance of the results was evaluated by a Student's t-test: *p<0.05, **p<0.01.
# [2] = system: collagen I gene; test: Preventive effect on collagen I gene expression in fibroblasts treated with hydrocortisone (hormonal environment)
# Excerpt: (§2) The quantitative real-time polymerase chain reaction (qRT-PCR) is a method that makes it possible to measure in a specific and quantitative way the expression of genes of interest by amplification. Quantification is based on the real-time monitoring of gene amplification using SYBR Green as a reporter system. SYBR Green is a molecule with fluorescent properties which is intercalated in double-stranded DNA. […]
# (§3) The quantities of DNA are compared in the exponential part, the time during which the increase in the quantity of DNA is proportional to the initial quantity of the matrix. […]
# (§4) At the end of the treatment of the cells, total RNA was extracted (RNeasy MiniKit) and then assayed quantitatively in chips using the Experion system (Experion RNA StdSens kit). […]
# (§5) Expression of the genes of reference is analyzed in the same samples as those for which the expression of the genes of interest is evaluated in order to normalize the results.
# (§6) Variation in the number of copies of the gene of interest during the treatment is then calculated according to the following formula: ΔΔCt=ΔCtcontrol−ΔCttreatment
# (§7) Finally, the relative quantity or level of expression of the genes of interest normalized by the level of expression of the reference genes in the untreated and treated samples is obtained by the formula RQ=2^ΔΔCt.
# as §1
# [3] = system: gene coding for collagen type I; test: Gene expression of collagen I in normal fibroblasts by quantitative real-time PCR; details: 48-hour treatment, normalized to GAPDH, 0.2% arabinogalactan or 5 ng/ml TGF-β1
# Excerpt: as §2, §3, §4, §5, §6, §7, §1
# [4] = system: collagen type III gene; test: Gene expression of collagen III in normal fibroblasts by quantitative real-time PCR; details: 48 hours of treatment, 0.2% dry matter arabinogalactan or 5 ng/ml TGF-β1
# Excerpt: as §2, §3, §4, §5, §6, §7, §1
# [5] = system: fibroblasts; test: Study of fibroblast proliferation by the MTT method; details: 0.2% arabinogalactan, 48 hours of treatment
# Description: The MTT [3-(4,5-dimethylthiazol-2-yl)-2,5-diphenyltetrazolium bromide] assay is a colorimetric test which measures cell viability. MTT is a yellow water-soluble tetrazolium salt; metabolically active cells are capable of reducing it into formazan blue crystals.
# At D0, the fibroblasts are inoculated in RPMI medium with 1% FCS.
# At D1, the cells are treated with RPMI with 10% FCS (positive control) or with 0.2% arabinogalactan for 48 hours.
# At the end of the treatment, cell viability is quantified by an MTT assay: after 3 hours of contact with MTT, the formazan crystals formed are solubilized by DMSO and the optical density, proportional to the quantity of metabolically active and thus living cells, is read at 570 nm against the blank (without cells).
# as §1
# [6] = system: normal human keratinocytes; test: Prerequisite cutaneous tolerance: pro-inflammatory potential, interleukins 1 and 8 and TNF-α assayed in the cell supernatant; details: 0.2% dry matter
# Description: A. Prerequisite Cutaneous Tolerance • Inflammation: The pro-inflammatory potential of arabinogalactan was evaluated on normal human keratinocytes. Interleukins 1 and 8 as well as TNF-α, early mediators of inflammation, were assayed in the cell supernatant.
compound,measurement,setting,value
"CCCCCCCCCCCCCC(=O)O[C@@H]1[C@@H](C)[C@@]2(O)[C@@H](C=C(CO)C[C@]3(O)C(=O)C(C)=C[C@@H]23)[C@@H]2C(C)(C)[C@]12OC(C)=O [PMA, phorbol-12-myristate-13-acetate, reference compound]",salting out of IL-1β under stress,"[1]; keratinocytes, 10 μg/ml PMA 16 hours",massively salt-out IL-1β
"C[C@]12CCC(=O)C=C1CC[C@@H]1[C@@H]2[C@@H](O)C[C@@]2(C)[C@H]1CC[C@]2(O)C(=O)CO [hydrocortisone, reference compound]",inhibition of expression of the collagen I gene,"[2]; fibroblasts, 50 μM hydrocortisone, 48 hours of treatment",57%
TGF-β: growth factor with a strong capacity to induce molecules of the extracellular matrix; used as a positive control [reference compound],increase of expression of the gene coding for collagen type I,[3],+223%
same,increase of expression of the collagen type III gene,[4],147%
arabinogalactan,inhibition of salting out of IL-1β (OD ELISA/OD540),"[1]; keratinocytes pretreated 24 hours with 0.2% dry matter arabinogalactan, then 10 μg/ml PMA 16 hours",−21%
same,"fibroblast proliferation / cell regeneration (MTT, OD570)",[5],+20%
same,increase of expression of collagen I in the presence of hydrocortisone,"[2]; fibroblasts pretreated 24 hours with 0.2% arabinogalactan, then arabinogalactan + 50 μM hydrocortisone 48 hours",37%
same,pro-inflammatory potential,[6],not pro-inflammatory
same,salting out of interleukins 1 and 8 or TNF-α,[6]; cell supernatant,does not lead to salting out of interleukins 1 and 8 or TNF-α
same,increase of expression of the gene coding for collagen type I,[3],+38%
same,increase of expression of the collagen type III gene,[4],+81%

# — patent publication US8765198B2, “Anti-stretch mark active agent, and compositions containing same” (Laboratoires Expanscience, priority 2008, dated 2014)
